The source of these data is patent US9303016B2, “Derivatives of aza adamantane and uses thereof” (CONNEXIOS LIFE SCIENCES PVT. LTD., priority 2011, dated 2016).

SMILES strings stand for the structures. Some results are limits rather than exact numbers.

T1 sequence (P28845 whole entry): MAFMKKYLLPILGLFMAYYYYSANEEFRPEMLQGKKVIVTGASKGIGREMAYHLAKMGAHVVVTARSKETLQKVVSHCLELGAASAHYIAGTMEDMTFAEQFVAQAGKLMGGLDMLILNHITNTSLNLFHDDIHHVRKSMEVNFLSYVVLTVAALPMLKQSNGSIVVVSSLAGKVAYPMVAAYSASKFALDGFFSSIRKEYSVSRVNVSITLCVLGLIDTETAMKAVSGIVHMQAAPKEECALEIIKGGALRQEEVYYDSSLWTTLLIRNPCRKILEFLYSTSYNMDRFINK

This experiment addresses T1, human full length HSD11β1 (Homo sapiens, UniProt P28845).
T1 construct: transient expression of human full length HSD11β1 expression vector; host or cells: CHO cells, transient transfection
Briefly: In Vitro HSD11β1 Inhibition Assay. As to conditions: CHO cells transiently expressing human HSD11β1; 200 nM cortisone+500 uM NADPH overnight; cortisone to cortisol by LC/MS-MS; read-out: 11βHSD1 (IC50). Format: cell-based. Put shortly: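 Whole-cell assay in CHO cells transiently transfected with full-length human HSD11β1, re-seeded 24 h after transfection. Cells incubated overnight with 200 nM cortisone plus 500 uM NADPH, with or without inhibitor. Cortisone-to-cortisol conversion measured by LC/MS-MS; IC50 (nM) from an 8-point log concentration-inhibition curve.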
As usually defined, the IC50 is the point on the concentration scale where inhibition reaches its midpoint. As for `CC(CC(=O)N1C2CC3CC1CC(O)(C3)C2)c1c[nH]c2ncc(Cl)c(C3CC3)c12` (centres unmarked) [Compound 198, 3-(5-chloro-4-cyclopropyl-1H-pyrrolo[2,3-b]pyridin-3-yl)-1-(5-hydroxy-2-azatricyclo[3.3.1.1^3,7]dec-2-yl)butan-1-one], the IC50 was below 100 nM.

Consider `CC(CC(=O)N1C2CC3CC1CC(C(=O)NCc1ccc(C(=O)O)cc1)(C3)C2)c1c[nH]c2cccc(C3CC3)c12` (centres unmarked) [Example 63, 4-{[({2-[3-(4-cyclopropyl-1H-indol-3-yl)butanoyl]-2-azatricyclo[3.3.1.1^3,7]dec-5-yl}carbonyl)amino]methyl}benzoic acid], for which the IC50 was above 250 nM.

On to `Cc1ccc2[nH]cc(C(C)CC(=O)N3C4CC5CC3CC(F)(C5)C4)c2c1C` (centres unmarked) [Compound 176, 3-(4,5-dimethyl-1H-indol-3-yl)-1-(5-fluoro-2-azatricyclo[3.3.1.1^3,7]dec-2-yl)butan-1-one], for which the IC50 was above 250 nM.

Regarding `O=C(CC(c1ccc(Cl)cc1)c1c[nH]c2ccccc12)N1C2CC3CC1CC(O)(C3)C2` (centres unmarked) [Example 71, 3-(4-chlorophenyl)-1-(5-hydroxy-2-azatricyclo[3.3.1.1^3,7]dec-2-yl)-3-(1H-indol-3-yl)propan-1-one], the IC50 is above 250 nM.

`COc1ccc2[nH]cc(C(C)CC(=O)N3C4CC5CC3CC(C#N)(C5)C4)c2c1` (centres unmarked) [Compound 230, 2-(3-(5-methoxy-1H-indol-3-yl)butanoyl)-2-azaadamantane-5-carbonitrile]: the IC50 is above 250 nM.

In the case of `Cc1cccc2c1c(C(C)CC(=O)N1C3CC4CC1CC(O)(C4)C3)cn2S(=O)(=O)c1cccc2cccnc12` (centres unmarked) [Compound 216, 1-(5-hydroxy-2-azaadamantan-2-yl)-3-(4-methyl-1-(quinolin-8-ylsulfonyl)-1H-indol-3-yl)butan-1-one], the IC50 was above 250 nM.

On to `O=C(CCc1c[nH]c2cc(F)ccc12)N1C2CC3CC(C2)CC1C3` [Example 5, 1-(2-azatricyclo[3.3.1.1^3,7]dec-2-yl)-3-(6-fluoro-1H-indol-3-yl)propan-1-one], for which the half-maximal inhibitory concentration (IC50) lay within 200 to 250 nM.

Turning to `CC(CC(=O)N1C2CC3CC1CC(C(N)=O)(C3)C2)c1c[nH]c2cccc(Cl)c12` (centres unmarked) [Example 47, 2-[3-(4-chloro-1H-indol-3-yl)butanoyl]-2-azatricyclo[3.3.1.1^3,7]decane-5-carboxamide], the IC50 was in the range of 150 to 200 nM.

In the case of `COc1ccc2[nH]cc(C(C)CC(=O)N3C4CC5CC3CC(F)(C5)C4)c2c1` (centres unmarked) [Compound 224, 1-(5-fluoro-2-azaadamantan-2-yl)-3-(5-methoxy-1H-indol-3-yl)butan-1-one], the IC50 is above 250 nM.

Regarding `Cc1ccc2[nH]cc(C(C)CC(=O)N3C4CC5CC3CC(C#N)(C5)C4)c2c1C` (centres unmarked) [Compound 221, 2-(3-(4,5-dimethyl-1H-indol-3-yl)butanoyl)-2-azaadamantane-5-carbonitrile], the IC50 was above 250 nM.

For `O=C(CCc1nc2ccccc2s1)N1C2CC3CC(C2)CC1C3` [Example 11, 1-(2-azatricyclo[3.3.1.1^3,7]dec-2-yl)-3-(1,3-benzothiazol-2-yl)propan-1-one], the IC50 is above 250 nM.

As for `COC12CC3CC(C1)N(C(=O)CC(C)c1c[nH]c4cccc(F)c14)C(C3)C2` (single isomer, unassigned) [Example 30, 3-(4-fluoro-1H-indol-3-yl)-1-(5-methoxy-2-azatricyclo[3.3.1.1^3,7]dec-2-yl)butan-1-one], the IC50 lay in the range of 150 to 200 nM.

`CC(CC(=O)N1C2CC3CC1CC(O)(C3)C2)c1c[nH]c2cccc(Cl)c12` (centres unmarked) [Example 35, 3-(4-chloro-1H-indol-3-yl)-1-(5-hydroxy-2-azatricyclo[3.3.1.1^3,7]dec-2-yl)butan-1-one]: the IC50 was below 100 nM.

As to `CC(C)Oc1cccc2[nH]cc(C(C)CC(=O)N3C4CC5CC3CC(F)(C5)C4)c12` (centres unmarked) [Compound 182, 1-(5-fluoro-2-azatricyclo[3.3.1.1^3,7]dec-2-yl)-3-[4-(propan-2-yloxy)-1H-indol-3-yl]butan-1-one], the IC50 is 150 to 200 nM.

As for `CC(CC(=O)N1C2CC3CC1CC(C#N)(C3)C2)c1c[nH]c2nccc(C3CC3)c12` (centres unmarked) [Compound 136, 2-[3-(4-cyclopropyl-1H-pyrrolo[2,3-b]pyridin-3-yl)butanoyl]-2-azatricyclo[3.3.1.1^3,7]decane-5-carbonitrile], the IC50 is below 100 nM.

Consider `O=C(CCc1c[nH]c2ccccc12)N1C2CC3CC(C2)CC1C3` [Example 1, 1-(2-azatricyclo[3.3.1.1^3,7]dec-2-yl)-3-(1H-indol-3-yl)propan-1-one], for which the IC50 is above 250 nM.

As for `Cc1ccc2[nH]cc(C(C)CC(=O)N3C4CC5CC3CC(O)(C5)C4)c2c1Cl` (single isomer, unassigned) [Compound 174, 3-(4-chloro-5-methyl-1H-indol-3-yl)-1-(5-hydroxy-2-azatricyclo[3.3.1.1^3,7]dec-2-yl)butan-1-one], the 50% inhibitory concentration (IC50) was above 250 nM.

`Cc1cccc2[nH]cc(C(C)CC(=O)N3C4CC5CC3CC(c3nnn[nH]3)(C5)C4)c12` (centres unmarked) [Compound 77, 3-(4-methyl-1H-indol-3-yl)-1-[5-(1H-tetrazol-5-yl)-2-azatricyclo[3.3.1.1^3,7]dec-2-yl]butan-1-one]: the IC50 was above 250 nM.

For the molecule `CC(CC(=O)N1C2CC3CC1CC(O)(C3)C2)c1c(C#N)[nH]c2cccc(C3CC3)c12` (centres unmarked) [Compound 220, 4-cyclopropyl-3-(4-(5-hydroxy-2-azaadamantan-2-yl)-4-oxobutan-2-yl)-1H-indole-2-carbonitrile], the IC50 is above 250 nM.

Take `CC(CC(=O)N1C2CC3CC1CC(OCC1CC1)(C3)C2)c1c[nH]c2cccc(F)c12` (centres unmarked) [Example 33, 1-[5-(cyclopropylmethoxy)-2-azatricyclo[3.3.1.1^3,7]dec-2-yl]-3-(4-fluoro-1H-indol-3-yl)butan-1-one]: the IC50 was above 250 nM.

With `CC(CC(=O)N1C2CC3CC1CC(O)(C3)C2)c1nc2ccccc2s1` (single isomer, unassigned) [Compound 115, 3-(1,3-benzothiazol-2-yl)-1-(5-hydroxy-2-azatricyclo[3.3.1.1^3,7]dec-2-yl)butan-1-one], the IC50 fell in the range of 200 to 250 nM.

Take `O=C(O)C1C2CC3CC(C2)N(C(=O)CC(c2cccs2)c2c[nH]c4cccc(F)c24)C1C3` (centres unmarked) [Compound 122, 2-[3-(4-fluoro-1H-indol-3-yl)-3-(thiophen-2-yl)propanoyl]-2-azatricyclo[3.3.1.1^3,7]decane-4-carboxylic acid]: the IC50 is above 250 nM.

In the case of `CC(CC(=O)N1C2CC3CC1CC(O)(C3)C2)c1c[nH]c2ncccc12` (centres unmarked) [Compound 86, 1-(5-hydroxy-2-azatricyclo[3.3.1.1]dec-2-yl)-3-(1H-pyrrolo[2,3-b]pyridin-3-yl)butan-1-one], the IC50 was above 250 nM.

On to `Cc1cccc2c1c(CCC(=O)N1C3CC4CC(C3)CC1C4)cn2C` [Example 3, 1-(2-azatricyclo[3.3.1.1^3,7]dec-2-yl)-3-(1,4-dimethyl-1H-indol-3-yl)propan-1-one], for which the IC50 was above 250 nM.

On to `CC(CC(=O)N1C2CC3CC1CC(O)(C3)C2)c1c[nH]c2cccc(F)c12` (centres unmarked) [Example 26, 3-(4-fluoro-1H-indol-3-yl)-1-(5-hydroxy-2-azatricyclo[3.3.1.1^3,7]dec-2-yl)butan-1-one], for which the IC50 was 200 to 250 nM.

For `CC(CC(=O)N1C2CC3CC1CC(CC(=O)O)(C3)C2)c1c[nH]c2cccc(-c3ccc(F)o3)c12` (centres unmarked) [Compound 215, 2-(2-(3-(4-(5-fluorofuran-2-yl)-1H-indol-3-yl)butanoyl)-2-azaadamantan-5-yl)acetic acid], the IC50 is above 250 nM.
